ChEMBL document CHEMBL1201862, “PubChem BioAssay data set” (2004)
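Step 1: Grow cells in 96-well plates. Step 2: Expose to compound for 48 hours at 5 concentrations. Step 3: Interpolate endpoints linearly; if unreached, use highest concentration. GI50 marks 50% less growth.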 Calls of active or inactive are those of the source. Rule as the data show it: active = GI50 up to about 1.1 µM and inactive = higher.

Key:
Assay in all cases: NCI tumour cell line growth inhibition, 48 h
DU-145 = tested on: DU-145
UACC-62 = tested on: UACC-62
SK-MEL-5 = tested on: SK-MEL-5
OVCAR-3 = tested on: OVCAR-3
SNB-75 = tested on: SNB-75
MDA-MB-231 = tested on: MDA-MB-231
SF-268 = tested on: SF-268
EKVX = tested on: EKVX
LOX IMVI = tested on: LOX IMVI
U-251 = tested on: U-251
MOLT-4 = tested on: MOLT-4
CCRF-CEM = tested on: CCRF-CEM
COLO 205 = tested on: COLO 205
HCT-116 = tested on: HCT-116
PC-3 = tested on: PC-3
NCI-H226 = tested on: NCI-H226
UO-31 = tested on: UO-31
RPMI-8226 = tested on: RPMI-8226
HOP-62 = tested on: HOP-62
NCI/ADR-RES = tested on: NCI/ADR-RES
HL-60 = tested on: HL-60
NCI-H460 = tested on: NCI-H460
NCI-H522 = tested on: NCI-H522
MDA-N = tested on: MDA-N
M14 = tested on: M14
Malme-3M = tested on: Malme-3M
NCI-H23 = tested on: NCI-H23
SF-539 = tested on: SF-539
UACC-257 = tested on: UACC-257
Hs-578T = tested on: Hs-578T
OVCAR-4 = tested on: OVCAR-4
SK-MEL-2 = tested on: SK-MEL-2
HCC 2998 = tested on: HCC 2998
HCT-15 = tested on: HCT-15
SR = tested on: SR
CAKI-1 = tested on: CAKI-1
786-0 = tested on: 786-0
TK-10 = tested on: TK-10
IGROV-1 = tested on: IGROV-1
ACHN = tested on: ACHN
HT-29 = tested on: HT-29
OVCAR-8 = tested on: OVCAR-8
A549 = tested on: A549
SF-295 = tested on: SF-295
T47D = tested on: T47D
BT-549 = tested on: BT-549
MDA-MB-435 = tested on: MDA-MB-435
SW-620 = tested on: SW-620
K562 = tested on: K562
SK-MEL-28 = tested on: SK-MEL-28
OVCAR-5 = tested on: OVCAR-5
SN12C = tested on: SN12C
SNB-19 = tested on: SNB-19
HOP-92 = tested on: HOP-92
SK-OV-3 = tested on: SK-OV-3
MCF7 = tested on: MCF7
KM12 = tested on: KM12
RXF 393 = tested on: RXF 393
A498 = tested on: A498

Structure (SMILES): O=[N+]([O-])c1c(O)c2nonc2c2nn(-c3ccccc3)nc12
- GI50 (DU-145): > 100 µM (inactive)
- GI50 (UACC-62): > 100 µM (inactive)
- GI50 (SK-MEL-5): > 100 µM (inactive)
- GI50 (OVCAR-3): > 100 µM (inactive)
- GI50 (SNB-75): > 100 µM (inactive)
- GI50 (MDA-MB-231): > 10 µM (inactive)
- GI50 (SF-268): > 100 µM (inactive)
- GI50 (EKVX): > 100 µM (inactive)
- GI50 (LOX IMVI): > 100 µM (inactive)
- GI50 (U-251): > 100 µM (inactive)
- GI50 (MOLT-4): > 100 µM (inactive)
- GI50 (CCRF-CEM): > 100 µM (inactive)
- GI50 (COLO 205): > 100 µM (inactive)
- GI50 (HCT-116): > 100 µM (inactive)
- GI50 (PC-3): > 100 µM (inactive)
- GI50 (NCI-H226): 6.85 µM (inactive)
- GI50 (UO-31): 43.2 µM (inactive)
- GI50 (RPMI-8226): > 100 µM (inactive)
- GI50 (HOP-62): > 100 µM (inactive)
- GI50 (NCI/ADR-RES): > 100 µM (inactive)
- GI50 (HL-60): > 100 µM (inactive)
- GI50 (NCI-H460): > 100 µM (inactive)
- GI50 (NCI-H522): 40 µM (inactive)
- GI50 (MDA-N): > 100 µM (inactive)
- GI50 (M14): > 100 µM (inactive)
- GI50 (Malme-3M): > 100 µM (inactive)
- GI50 (NCI-H23): > 100 µM (inactive)
- GI50 (SF-539): > 100 µM (inactive)
- GI50 (UACC-257): > 100 µM (inactive)
- GI50 (Hs-578T): 65.5 µM (inactive)
- GI50 (OVCAR-4): 83.4 µM (inactive)
- GI50 (SK-MEL-2): > 100 µM (inactive)
- GI50 (HCC 2998): > 100 µM (inactive)
- GI50 (HCT-15): > 100 µM
- GI50 (SR): > 100 µM (inactive)
- GI50 (CAKI-1): > 100 µM (inactive)
- GI50 (786-0): > 100 µM (inactive)
- GI50 (TK-10): 55.3 µM (inactive)
- GI50 (IGROV-1): > 100 µM (inactive)
- GI50 (ACHN): > 100 µM (inactive)
- GI50 (HT-29): > 100 µM (inactive)
- GI50 (OVCAR-8): > 100 µM (inactive)
- GI50 (A549): > 100 µM (inactive)
- GI50 (SF-295): > 100 µM (inactive)
- GI50 (T47D): > 100 µM (inactive)
- GI50 (BT-549): > 100 µM (inactive)
- GI50 (MDA-MB-435): > 100 µM (inactive)
- GI50 (SW-620): > 100 µM (inactive)
- GI50 (K562): > 100 µM (inactive)
- GI50 (SK-MEL-28): > 100 µM (inactive)
- GI50 (OVCAR-5): > 100 µM (inactive)
- GI50 (SN12C): > 100 µM (inactive)
- GI50 (SNB-19): > 100 µM (inactive)
- GI50 (HOP-92): > 100 µM (inactive)
- GI50 (SK-OV-3): > 100 µM (inactive)
- GI50 (MCF7): 20.5 µM (inactive)
- GI50 (KM12): > 100 µM (inactive)

Structure (SMILES): COc1ccc(OC)c(-c2nc3n(c2/C=C2/C(=O)Nc4ccccc42)CCS3)c1
- GI50 (DU-145): 64.4 µM (inactive)
- GI50 (UACC-62): 48.4 µM (inactive)
- GI50 (SK-MEL-5): 53.5 µM (inactive)
- GI50 (OVCAR-3): 36.1 µM (inactive)
- GI50 (SNB-75): 22.3 µM (inactive)
- GI50 (MDA-MB-231): 25.6 µM (inactive)
- GI50 (SF-268): 67.5 µM (inactive)
- GI50 (EKVX): > 100 µM (inactive)
- GI50 (LOX IMVI): 51.2 µM (inactive)
- GI50 (U-251): 67 µM (inactive)
- GI50 (MOLT-4): 27 µM (inactive)
- GI50 (CCRF-CEM): 35 µM (inactive)
- GI50 (COLO 205): 39.5 µM (inactive)
- GI50 (HCT-116): 45.2 µM (inactive)
- GI50 (PC-3): 86.5 µM (inactive)
- GI50 (NCI-H226): > 100 µM (inactive)
- GI50 (UO-31): 41.4 µM (inactive)
- GI50 (RPMI-8226): 35 µM (inactive)
- GI50 (HOP-62): 58.6 µM (inactive)
- GI50 (NCI/ADR-RES): 34.8 µM (inactive)
- GI50 (HL-60): 33.9 µM (inactive)
- GI50 (NCI-H460): 35 µM (inactive)
- GI50 (NCI-H522): 34 µM (inactive)
- GI50 (MDA-N): 18.2 µM (inactive)
- GI50 (M14): 37.4 µM (inactive)
- GI50 (Malme-3M): 92.7 µM (inactive)
- GI50 (NCI-H23): > 100 µM (inactive)
- GI50 (SF-539): 47.9 µM (inactive)
- GI50 (UACC-257): 63.1 µM (inactive)
- GI50 (Hs-578T): 44.8 µM (inactive)
- GI50 (OVCAR-4): 41.5 µM (inactive)
- GI50 (SK-MEL-2): 26 µM (inactive)
- GI50 (HCT-15): 42.3 µM
- GI50 (SR): 32.8 µM (inactive)
- GI50 (CAKI-1): 51.4 µM (inactive)
- GI50 (786-0): > 100 µM (inactive)
- GI50 (TK-10): 41.2 µM (inactive)
- GI50 (RXF 393): 21.4 µM (inactive)
- GI50 (A498): 48.5 µM (inactive)
- GI50 (IGROV-1): 36 µM (inactive)
- GI50 (ACHN): 90.6 µM (inactive)
- GI50 (HT-29): 47.6 µM (inactive)
- GI50 (OVCAR-8): 68.1 µM (inactive)
- GI50 (A549): 63.7 µM (inactive)
- GI50 (SF-295): 29.4 µM (inactive)
- GI50 (T47D): 35.1 µM (inactive)
- GI50 (BT-549): 81.5 µM (inactive)
- GI50 (MDA-MB-435): 17.5 µM (inactive)
- GI50 (SW-620): 40.9 µM (inactive)
- GI50 (K562): 37.4 µM (inactive)
- GI50 (SK-MEL-28): > 100 µM (inactive)
- GI50 (OVCAR-5): > 100 µM (inactive)
- GI50 (SN12C): 65.8 µM (inactive)
- GI50 (SNB-19): > 100 µM (inactive)
- GI50 (HOP-92): 48.6 µM (inactive)
- GI50 (SK-OV-3): 72.9 µM (inactive)
- GI50 (MCF7): 46.7 µM (inactive)
- GI50 (KM12): 30.1 µM (inactive)
